Measurements as given in ChEMBL document CHEMBL3864136, “A monocyclic neodysiherbaine analog: Synthesis and evaluation” (Bioorg Med Chem Lett, 2016).

Assays:
[1] = target: Glutamate receptor ionotropic, kainate 2 (Homo sapiens, UniProt Q13002); assay: Displacement of [3H]kianic acid from recombinant GluK2 kainate receptor (unknown origin) expressed in HEK293 cell membranes measured after 1 hr
[2] = target: Glutamate receptor ionotropic, kainate 1 (Homo sapiens, UniProt P39086); assay: Displacement of [3H]kianic acid from recombinant GluK1 kainate receptor (unknown origin) expressed in HEK293 cell membranes measured after 1 hr
Sequence of Glutamate receptor ionotropic, kainate 1 (P39086 whole entry): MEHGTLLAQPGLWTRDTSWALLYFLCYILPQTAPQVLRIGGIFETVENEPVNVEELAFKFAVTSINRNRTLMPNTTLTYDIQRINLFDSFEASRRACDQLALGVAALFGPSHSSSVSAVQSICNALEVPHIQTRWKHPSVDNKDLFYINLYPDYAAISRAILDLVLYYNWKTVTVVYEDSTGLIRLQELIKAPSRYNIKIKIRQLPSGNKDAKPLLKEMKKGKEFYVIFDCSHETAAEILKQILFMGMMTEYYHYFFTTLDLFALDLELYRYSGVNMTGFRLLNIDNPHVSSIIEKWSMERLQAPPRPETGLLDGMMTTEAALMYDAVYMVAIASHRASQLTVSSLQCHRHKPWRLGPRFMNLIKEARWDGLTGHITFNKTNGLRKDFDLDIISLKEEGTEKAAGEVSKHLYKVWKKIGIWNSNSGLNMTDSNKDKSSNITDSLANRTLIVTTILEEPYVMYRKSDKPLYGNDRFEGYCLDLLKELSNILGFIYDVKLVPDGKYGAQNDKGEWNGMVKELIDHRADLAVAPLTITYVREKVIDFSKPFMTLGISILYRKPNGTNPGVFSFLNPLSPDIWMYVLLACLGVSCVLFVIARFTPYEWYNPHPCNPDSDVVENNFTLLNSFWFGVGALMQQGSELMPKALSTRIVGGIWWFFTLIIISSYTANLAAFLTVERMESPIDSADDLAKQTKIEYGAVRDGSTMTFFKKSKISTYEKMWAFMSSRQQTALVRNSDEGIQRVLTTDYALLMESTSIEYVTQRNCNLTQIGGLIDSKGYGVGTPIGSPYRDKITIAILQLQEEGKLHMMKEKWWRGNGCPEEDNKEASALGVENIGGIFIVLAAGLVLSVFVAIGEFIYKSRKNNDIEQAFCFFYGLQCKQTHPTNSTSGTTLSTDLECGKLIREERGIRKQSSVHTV

Sequence of Glutamate receptor ionotropic, kainate 2 (Q13002 whole entry): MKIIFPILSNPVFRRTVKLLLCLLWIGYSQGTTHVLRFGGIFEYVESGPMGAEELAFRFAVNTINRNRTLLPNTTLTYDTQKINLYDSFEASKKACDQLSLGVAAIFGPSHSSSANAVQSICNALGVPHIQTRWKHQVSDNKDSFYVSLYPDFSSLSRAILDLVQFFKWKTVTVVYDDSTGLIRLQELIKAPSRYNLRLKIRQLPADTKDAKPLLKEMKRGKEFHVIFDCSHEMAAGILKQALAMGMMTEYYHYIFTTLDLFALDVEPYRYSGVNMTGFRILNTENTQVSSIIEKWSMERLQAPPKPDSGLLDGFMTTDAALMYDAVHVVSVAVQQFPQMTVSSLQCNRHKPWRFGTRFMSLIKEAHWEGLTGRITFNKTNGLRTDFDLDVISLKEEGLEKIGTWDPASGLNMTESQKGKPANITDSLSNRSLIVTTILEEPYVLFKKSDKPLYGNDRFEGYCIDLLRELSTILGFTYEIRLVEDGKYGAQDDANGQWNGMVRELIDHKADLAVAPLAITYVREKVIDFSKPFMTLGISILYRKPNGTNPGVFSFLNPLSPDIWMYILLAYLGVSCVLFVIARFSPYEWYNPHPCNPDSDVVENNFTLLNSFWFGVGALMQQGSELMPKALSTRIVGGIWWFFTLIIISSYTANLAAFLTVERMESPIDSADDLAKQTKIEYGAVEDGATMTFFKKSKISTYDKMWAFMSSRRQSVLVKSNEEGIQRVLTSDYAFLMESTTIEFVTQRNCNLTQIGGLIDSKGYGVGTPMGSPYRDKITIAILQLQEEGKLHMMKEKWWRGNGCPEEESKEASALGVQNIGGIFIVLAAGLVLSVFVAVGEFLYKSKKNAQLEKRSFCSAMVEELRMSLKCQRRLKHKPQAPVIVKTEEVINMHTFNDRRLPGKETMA

## CN[C@H]1[C@H]2O[C@@](C[C@H](N)C(=O)O)(C(=O)O)C[C@H]2OC[C@H]1O [DYSIHERBAINE]
[1]
  Ki: 1.2 nM
[2]
  Ki: 0.74 nM
